Experimental data published in US12637720B2, “Molecular subtyping of small cell lung cancer to predict therapeutic responses” (Board of Regents, The University of Texas System, priority 2019, dated 2026).

Experiments:
[1] = system: SCLC cell lines; assay: Cisplatin CellTiter-Glo cell viability, IC50 compared between SCLC subtypes; type: cell-based
Description: Drug response data. With the exception of cisplatin (Allison Stewart et al., 2017; Gay et al., 2019), drug response data included publicly available data sets (Polley et al., 2016). For cisplatin, cell lines were plated at 2,000 cells per well in 96-well plates 24 hours prior to treatment with drug using standard cell culture conditions. Each line was treated, in triplicate, with cisplatin at starting concentration of 10 μmon followed by 1:3 serial dilutions and DMSO-only control. Following 120-hour incubations, cell viability was assessed using CellTiter-Glo Luminescent Cell Viability Assay (Promega). IC50 values were estimated using software program drexplorer with fitting of multiple dose-response models and selection of best model using the residual standard error.
While there are biological differences between each subtype, it not known to what extent these differences yield distinct responses to anti-cancer therapies. To investigate subtype-specific vulnerabilities, SCLC cell line in vitro drug response data for over 500 drugs were used (Gay, 2019; Polley et al., 2016). […] For each subtype, a drug or drug class that worked especially well was identified, often accompanied by differential expression of the drug target or putative predictive biomarker.

[2] = system: MDA-SC53 and MDA-SC68 CDX models; assay: Cisplatin treatment of CTC-derived xenograft (CDX) models; type: in vivo, mice
Text: Circulating-tumor cell derived xenograft model generation. Patients diagnosed with SCLC at the University of Texas MD Anderson Cancer Center were selected on the basis of extensive-stage disease irrespective of age, gender or other clinical criteria. These patients underwent informed consent to Institutional Review Board (IRB)-approved protocol LAB10-0442 (“Evaluation of blood-based test for the detection of circulating tumor cells and circulating proteins and microRNAs and molecular analysis for polymorphisms and mutations”) and blood was collected. Technical details are as previously described (Stewart et al., 2020b). One vial of blood was collected for isolation and banking of plasma and peripheral blood mononuclear cells for use as a normal control. […] Mice were monitored for formation of a flank tumor and were euthanized when tumor burden reached 1000-1500 mm^3. […]
Single-cell RNAseq. […] Cells were then stained for anti-human HLA A647 (Biolegend 311414), Calcein AM (C3100MP) and DAPI (Lifetech D1306, 1 μg/mL) and sorted by Fluorescence-Activated Cell sorting (FACS) to select only live, human cells for downstream single cell transcriptomic analyses. Sorted cells were washed once with 0.04% BSA in PBS and counted on Countess II automated cell counter (ThermoFisher). […]

[3] = system: platinum-resistant SCLC; details: patients with platinum-resistant SCLC; cited from earlier work
[4] = system: relapsed SCLC; details: single-agent, relapsed SCLC patients, KEYNOTE-158; cited from earlier work
[5] = molecular target: T1, DLL3 (Homo sapiens, UniProt Q9NYJ7); details: cited from earlier work
T1 construct: host or cells: SCLC tumours of patients in the clinical trial (endogenous DLL3)
T1 sequence (Q9NYJ7 27-618): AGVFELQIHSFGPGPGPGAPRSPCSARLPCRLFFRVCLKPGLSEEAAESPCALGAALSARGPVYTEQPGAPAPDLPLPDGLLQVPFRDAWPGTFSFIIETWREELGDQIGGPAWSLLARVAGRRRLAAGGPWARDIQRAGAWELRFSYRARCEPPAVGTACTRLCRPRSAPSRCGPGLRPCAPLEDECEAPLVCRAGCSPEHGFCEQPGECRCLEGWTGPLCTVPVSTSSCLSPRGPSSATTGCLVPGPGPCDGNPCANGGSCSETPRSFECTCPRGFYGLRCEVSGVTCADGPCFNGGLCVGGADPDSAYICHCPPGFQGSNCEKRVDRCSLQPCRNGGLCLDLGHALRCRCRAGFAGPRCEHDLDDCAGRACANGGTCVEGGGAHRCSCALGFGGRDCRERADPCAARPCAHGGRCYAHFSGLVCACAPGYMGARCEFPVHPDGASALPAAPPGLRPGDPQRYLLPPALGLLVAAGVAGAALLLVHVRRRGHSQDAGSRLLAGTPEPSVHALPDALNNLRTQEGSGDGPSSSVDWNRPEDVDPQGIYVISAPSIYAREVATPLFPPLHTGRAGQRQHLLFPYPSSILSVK

## N.N.[Cl][Pt][Cl] [cisplatin]
[1]; SCLC-A
  cisplatin sensitivity of SCLC-A models: range of sensitivities
[1]; SCLC-I
  cisplatin sensitivity of SCLC-I models: resistant
[1]; SCLC-N
  cisplatin sensitivity of SCLC-N models: resistant
[1]; SCLC-P, mean IC50 versus other subtypes, trend
  cisplatin sensitivity of SCLC-P models: most sensitive
[2]; MDA-SC68rel model, relapsed after in vivo cisplatin treatment
  response of CDX model to cisplatin: cisplatin-resistant
[2]; treatment-naive MDA-SC68 parental model
  response of CDX model to cisplatin: cisplatin-sensitive

## nivolumab: anti-PD-1 antibody described in WO2006/121168
[3]
  overall survival benefit versus chemotherapy: preferential OS benefit

## pembrolizumab: anti-PD-1 antibody described in WO2009/114335
[4]
  response rate: 19%

B1: rovalpituzumab tesirine: ADC targeting the inhibitory Notch ligand Delta-like ligand 3 (DLL3) (conjugate, chains of the INN, looked up)
VH: QVQLVQSGAEVKKPGASVKVSCKASGYTFTNYGMNWVRQAPGQGLEWMGWINTYTGEPTYADDFKGRVTMTTDTSTSTAYMELRSLRSDDTAVYYCARIGDSSPSDYWGQGTLVTVSS
VL: EIVMTQSPATLSVSPGERATLSCKASQSVSNDVVWYQQKPGQAPRLLIYYASNRYTGIPARFSGSGSGTEFTLTISSLQSEDFAVYYCQQDYTSPWTFGQGTKLEIK
modifications: tesirine
[5]; Phase II clinical trial for SCLC
  clinical activity: only modest activity
[5]; Phase II clinical trial, of the conjugated cytotoxic molecule
  toxicity: unexpected toxicity
